Results reported in patent US7763281B2, “Antihypertensive peptide and use thereof” (Da-Yeh University, priority 2007, dated 2010).
Read-outs that look alike come from different tables or passages of the source. Ends that are not written are not given here.

Assays:
[1] = tested on: spontaneously hypertensive rats (SHRs); assay: Change of SBP and DBP in SHRs by tail-cuff method after single oral administration; assay type: in vivo, rat; conditions: single oral dose 1 mg/kg BW
Experimental: Therefore, the antihypertensive activity of the aforementioned supernatant powder of the fermented dairy product were measured in SHRs and normotensive rats (Wistar-Kyoto rats, WKYs) to evaluate its potential applications to functional food for preventing hypertension. The male SHRs and male WKYs used in the present and following examples were purchased from National Laboratory Animal Center (Taipei, Taiwan) and fed with laboratory chow (Rodent laboratory chow 5001, Purina Co., USA). Blood pressures including SBP and DBP of 8- to 18-wk-old SHRs (body weight, 330-360 g) and 8- to 18-wk-old WKYs (body weight, 350-380 g) were measured by the tail-cuff method employing a tail-cuff detection system (Softron BP16; Softron, Tokyo, Japan). The antihypertensive activities of the test samples were evaluated by measuring the changes in SBP and DBP of SHRs and WKYs during 0-10 h after oral administration of respective samples.

[2] = tested on: spontaneously hypertensive rats (SHRs); conditions: cited from earlier work
[3] = assay type: in vitro ADME
Experimental: Briefly, the peptide was digested with a pepsin solution (pH 2.5) (EC 3.4.23.1; 1:10000; Sigma, USA) for 1.5 h at 37° C., followed by digestion with Corolase PP (pH 7.5) (pancreatic protease; Rohm, Darmstadt, German) for 2.5 h at 37° C. To remove the enzyme added, the digested peptide solution was filtered through a 3 kDa cut-off centrifugal filter (Microcon YM-3, 3 kDa NMWL, Millipore Co., USA) by centrifugation at 1,000×g for 10 min. The filtrate was then used in the analysis for peptide fragments by MALDI-TOF-MS (matrix-assisted laser desorption ionization-time of flight mass spectrometry).

For “KVLPVP [known peptide from casein hydrolysate (Maeno et al., 1996), synthetic comparator]”, the “maximal decrease in SBP” value ([1]; at 2 h) was 27.8±3.3 mmHg and the “maximal decrease in DBP” value ([1]; at 5 h) was 17.5±4.2 mmHg.

For “KVLPVPQ [known peptide from casein hydrolysate (Maeno et al., 1996), synthetic comparator]”, the “maximal decrease in SBP” value ([1]; at 3 h) is given as 29.2±4.0 mmHg, the “maximal DBP decrease” value ([1]; at 4 h) is given as 14.4±3.2 mmHg and the “decrease of SBP” value ([2]; single oral administration of 2 mg/kg BW, at 6 h (Maeno et al., 1996)) is given as 31.5±5.6 mmHg.

In the case of “VLSLSQPKVLPVPQKAVPQ [Val-Leu-Ser-Leu-Ser-Gln-Pro-Lys-Val-Leu-Pro-Val-Pro-Gln-Lys-Ala-Val-Pro-Gln]”, the “peptide fragments after simulated gastro-intestinal digestion” value [3] is reported as “did not contain Lys-Val-Leu-Pro-Val-Pro (SEQ ID NO: 3) or Lys-Val-Leu-Pro-Val-Pro-Gln (SEQ ID NO: 4)”.

For “Val-Pro-Pro (VPP; Peptide derived from casein) [tripeptide derived from β-casein, synthesized and tested as positive control]”, the “maximal DBP decrease” value ([1]; at 4 h) is listed as 18.0±2.1 mmHg, the “maximal SBP decrease” value ([1]; at 4 h) is listed as 26.3±3.2 mmHg and the “decrease of SBP” value ([2]; dose 1.6 mg/kg BW, at 6 h after oral administration (Nakamura et al., 1995)) is listed as 20 mmHg.
